Data from patent US11944605B2, “Rapamycin analogs and uses thereof” (Janssen Pharmaceutica NV, priority 2018, dated 2024).

How the values were obtained:
[1] = system: pS6K1 (p-p70 S6 Kinase (Thr389)) in MCF-7 cells; assay: AlphaLISA Ultra pS6K1 Assay; type: cell-based; conditions: Homo sapiens, 1.5 h; MCF7 cells, 90 min
Procedure: AlphaLISA Ultra pS6K1 Assay
1. Seed MCF-7 cells in Corning 3701 plate and incubate for 20˜24 hour. 12,000˜16,000 cells will be seeded in 36 μL medium per well.
2. Change the culture medium with fresh medium and incubate for another 2 hours.
3. Add 12 μL (4×) compounds into the cell plate by HAMILTON. Final DMSO concentration is 0.5%. Incubate for 90 minutes.
4. Aspirate […] by HAMILTON, 10 μL rest per well.
5. Add 10 μL 2× lysis buffer using HAMILTON; total volume in wells is 20 μL. Allow cells to shake for 30 min. Cover plate by plastic foil and store plate at −80° C. up to analysis.
6. Thaw cell lysate at RT and transfer 10 μL lysate to assay plate (Optiplate-384).
7. Add 5 μL acceptor beads into assay plate and incubation for 2 hours
8. Add 5 μL donor beads and incubation for 2 hours
9. Count the plate by EnSpire Multimode Plate Reader

mTORC1 over mTORC2 = assay: mTORC1 selectivity over mTORC2 at 24 hrs (Western blot based pS6K1 and pAKT assay); type: cell-based; conditions: 24 hrs
Procedure: Western Blot Based pS6K1 and pAKT Assay at 24 and 48 Hour Timepoints
1. Seed six well plate with 500,000 PC3 cells per well and incubate for 20˜24 hour.
2. Add compounds into the cell plate. Incubate for 24 to 48 hours.
4. Plate is placed on ice and the media is removed via aspiration. The wells are washed with 1 mL of 1× PBS and then fully aspirated.
5. 110 μL of 1% Triton Lysis Buffer is added and each well is scraped vigorously.
6. Cell homogenates are transferred to 1.5 mL eppendorf tubes on ice and spun down at 4° C. for 10 minutes at 10,000 rpm.
9. The membranes were washed 3× with TBS-T with a 5 minute incubation between each wash then incubated with secondary antibody (LiCor IRDye 800 Donkey Anti Rabbit) for at least 30 minutes.
10. The membranes were washed 3× with TBS-T with a 5 minute incubation between each wash.
11. The gels were then incubated for 5 minutes with PBS at room temperature then imaged using a Li-Cor.
“N/A” stands for “not assayed.”

SMILES: CO[C@@H]1C[C@H](C[C@@H](C)[C@@H]2CC(=O)[C@H](C)/C=C(\C)[C@@H](O)[C@@H](OC)C(=O)[C@H](C)C[C@H](C)/C=C/C=C/C=C(\C)[C@H](OCC(CO)CO)C[C@@H]3CC[C@@H](C)[C@@](O)(O3)C(=O)C(=O)N3CCCC[C@H]3C(=O)O2)CC[C@H]1O [I-4]
- IC50 [1]: 0.1 to 1 nM
- mTORC1 selective @ 24 hrs (mTORC1 over mTORC2): YES

SMILES: CNC(=O)CCCO[C@@H]1C[C@@H]2CC[C@@H](C)[C@@](O)(O2)C(=O)C(=O)N2CCCC[C@H]2C(=O)O[C@H]([C@H](C)C[C@@H]2CC[C@@H](OCCO)[C@H](OC)C2)CC(=O)[C@H](C)/C=C(\C)[C@@H](O)[C@@H](OC)C(=O)[C@H](C)C[C@H](C)/C=C/C=C/C=C/1C [I-59, 4-[[(22E,24E,26E,27E,34R,35S,36R,37R,39S,41S,43R,44S,45R,46R,56R)-45, 56-dihydroxy-44-[(1R)-2-[(1S,3R,4R)-4-(2-hydroxyethoxy)-3-methoxy-cyclohexyl]-1-methyl-ethyl]-46-methoxy-34, 35,36,37,47,48-hexamethyl-49,50,51,52,53-pentaoxo-68,69-dioxa-58-azatricyclohexatriaconta-22, 24,26(47),27(48)-tetraen-43-yl]oxy]-N-methyl-butanamide]
- IC50 [1]: ≥ 100 nM
- mTORC1 selective @ 24 hrs (mTORC1 over mTORC2): YES

SMILES: CNC(=O)CCCO[C@H]1C[C@@H]2CC[C@@H](C)[C@@](O)(O2)C(=O)C(=O)N2CCCC[C@H]2C(=O)O[C@H]([C@H](C)C[C@@H]2CC[C@@H](OCCO)[C@H](OC)C2)CC(=O)[C@H](C)/C=C(\C)[C@@H](O)[C@@H](OC)C(=O)[C@H](C)C[C@H](C)/C=C/C=C/C=C/1C [I-60, 4-[[(22E, 24E,26E,27E,34R,35S,36R,37R,39S,41S,43S,44S,45R,46R,56R)-45, 56-dihydroxy-44-[(1R)-2-[(1S,3R,4R)-4-(2-hydroxyethoxy)-3-methoxy-cyclohexyl]-1-methyl-ethyl]-46-methoxy-34, 35,36,37,47,48-hexamethyl-49,50,51,52,53-pentaoxo-68,69-dioxa-58-azatricyclohexatriaconta-22, 24,26(47),27(48)-tetraen-43-yl]oxy]-N-methyl-butanamide]
- IC50 [1]: 1 to 10 nM
- mTORC1 selective @ 24 hrs (mTORC1 over mTORC2): YES

SMILES: CO[C@@H]1C[C@H](C[C@@H](C)[C@@H]2CC(=O)[C@H](C)/C=C(\C)[C@@H](O)[C@@H](OC)C(=O)[C@H](C)C[C@H](C)/C=C/C=C/C=C(\C)[C@H](OCCCC(=O)N(C)C)C[C@@H]3CC[C@@H](C)[C@@](O)(O3)C(=O)C(=O)N3CCCC[C@H]3C(=O)O2)CC[C@H]1OCCO [I-61, 4-[[(23E,25E,27E,28E,35R,36S,37R,38R,40S,42S,44R,45S,46R,47R,57R)-46, 57-dihydroxy-45-[(1R)-2-[(1S,3R,4R)-4-(2-hydroxyethoxy)-3-methoxy-cyclohexyl]-1-methyl-ethyl]-47-methoxy-35, 36,37,38,48,49-hexamethyl-50,51,52,53,54-pentaoxo-69,70-dioxa-58-azatricyclohexatriaconta-23, 25,27(48),28(49)-tetraen-44-yl]oxy]-N,N-dimethyl-butanamide]
- IC50 [1]: 1 to 10 nM
- mTORC1 selective @ 24 hrs (mTORC1 over mTORC2): YES

SMILES: CNC(=O)CCCOC1C[C@@H]2CC[C@@H](C)[C@@](O)(O2)C(=O)C(=O)N2CCCC[C@H]2C(=O)OC([C@H](C)CC2CC[C@@H](OCCO)[C@H](OC)C2)CC(=O)[C@H](C)/C=C(\C)[C@@H](O)[C@@H](OC)C(=O)[C@H](C)C[C@H](C)/C=C/C=C/C=C/1C (stereo partly drawn) [I-68, 4-[[(22E,24E,26E,27E,34R,35S,36R,37R,39S,41S,44S,45R,46R, 56R)-45,56-dihydroxy-44-[(1R)-2-[(1S,3R,4R)-4-(2-hydroxyethoxy)-3-methoxy-cyclohexyl]-1-methyl-ethyl]-46-methoxy-34, 35,36,37,47,48-hexamethyl-49,50,51,52,53-pentaoxo-68,69-dioxa-58-azatricyclohexatriaconta-22, 24,26(47),27(48)-tetraen-43-yl]oxy]-N-methyl-butanamide]
- IC50 [1]: 1 to 10 nM
- mTORC1 selective @ 24 hrs (mTORC1 over mTORC2): YES

SMILES: CO[C@@H]1CC(C[C@@H](C)C2CC(=O)[C@H](C)/C=C(\C)[C@@H](O)[C@@H](OC)C(=O)[C@H](C)C[C@H](C)/C=C/C=C/C=C(\C)C(OCCCC(=O)N(C)C)C[C@@H]3CC[C@@H](C)[C@@](O)(O3)C(=O)C(=O)N3CCCC[C@H]3C(=O)O2)CC[C@H]1OCCO (stereo partly drawn) [I-69, 4-[[(23E, 25E,27E,28E,35R,36S,37R,38R,40S,42S,45S,46R,47R,57R)-46,57-dihydroxy-45-[(1R)-2-[(1S, 3R,4R)-4-(2-hydroxyethoxy)-3-methoxy-cyclohexyl]-1-methyl-ethyl]-47-methoxy-35, 36,37,38,48,49-hexamethyl-50,51,52,53,54-pentaoxo-69,70-dioxa-58-azatricyclohexatriaconta-23, 25,27(48),28(49)-tetraen-44-yl]oxy]-N,N-dimethyl-butanamide]
- IC50 [1]: 0.1 to 1 nM
- mTORC1 selective @ 24 hrs (mTORC1 over mTORC2): YES

SMILES: CO[C@@H]1CC(C[C@@H](C)C2CC(=O)[C@H](C)/C=C(\C)[C@@H](O)[C@@H](OC)C(=O)[C@H](C)C[C@H](C)/C=C/C=C/C=C(\C)[C@H](OCCOCC(F)(F)F)C[C@@H]3CC[C@@H](C)[C@@](O)(O3)C(=O)C(=O)N3CCCC[C@H]3C(=O)O2)CC[C@H]1OCCO (stereo partly drawn) [I-70, (21E,23E,25E,26E,33R,34S,35R,36R,38S,40S,42S,43R,44R,45R,54R)-44, 54-dihydroxy-43-[(1R)-2-[(1S,3R,4R)-4-(2-hydroxyethoxy)-3-methoxy-cyclohexyl]-1-methyl-ethyl]-45-methoxy-33, 34,35,36,46,47-hexamethyl-42-[2-(2,2,2-trifluoroethoxy)ethoxy]-65, 66-dioxa-56-azatricyclohexatriaconta-21,23,25(46),26(47)-tetraene-48,49,50,51,52-pentone]
- IC50 [1]: 1 to 10 nM
- mTORC1 selective @ 24 hrs (mTORC1 over mTORC2): YES

SMILES: CO[C@@H]1CC(C[C@@H](C)C2CC(=O)[C@H](C)/C=C(\C)[C@@H](O)[C@@H](OC)C(=O)[C@H](C)C[C@H](C)/C=C/C=C/C=C(\C)C(OCCOCC(F)(F)F)C[C@@H]3CC[C@@H](C)[C@@](O)(O3)C(=O)C(=O)N3CCCC[C@H]3C(=O)O2)CC[C@H]1OCCO (stereo partly drawn) [I-77, (21E,23E,25E,26E,33R,34S,35R,36R,38S,40S,43S,44R,45R,54R)-44, 54-dihydroxy-43-[(1R)-2-[(1S,3R,4R)-4-(2-hydroxyethoxy)-3-methoxy-cyclohexyl]-1-methyl-ethyl]-45-methoxy-33, 34,35,36,46,47-hexamethyl-42-[2-(2,2,2-trifluoroethoxy)ethoxy]-65,66-dioxa-56-azatricyclohexatriaconta-21, 23,25(46),26(47)-tetraene-48,49,50,51,52-pentone]
- IC50 [1]: < 0.1 nM
- mTORC1 selective @ 24 hrs (mTORC1 over mTORC2): YES

SMILES: CO[C@@H]1C[C@H](C[C@@H](C)[C@@H]2CC(=O)[C@H](C)/C=C(\C)[C@@H](O)[C@@H](OC)C(=O)[C@H](C)C[C@H](C)/C=C/C=C/C=C(\C)[C@H](OCCOCCOCC(F)(F)F)C[C@@H]3CC[C@@H](C)[C@@](O)(O3)C(=O)C(=O)N3CCCC[C@H]3C(=O)O2)CC[C@H]1OCCO [I-84]
- IC50 [1]: 0.1 to 1 nM
- mTORC1 selective @ 24 hrs (mTORC1 over mTORC2): YES

SMILES: CO[C@@H]1C[C@H](C[C@@H](C)[C@@H]2CC(=O)[C@H](C)/C=C(\C)[C@@H](O)[C@@H](OC)C(=O)[C@H](C)C[C@H](C)/C=C/C=C/C=C(\C)[C@@H](OCCS(=O)(=O)CCS(=O)(=O)CCO)C[C@@H]3CC[C@@H](C)[C@@](O)(O3)C(=O)C(=O)N3CCCC[C@H]3C(=O)O2)CC[C@H]1O [I-95, (21E,23E,25E,26E,34R,35S,36R,37R,39S,41S,43S,44S,45R,46R,55R)-45, 55-dihydroxy-43-[2-[2-(2-hydroxyethylsulfonyl)ethylsulfonyl]ethoxy]-44-[(1R)-2-[(1S,3R, 4R)-4-hydroxy-3-methoxy-cyclohexyl]-1-methyl-ethyl]-46-methoxy-34,35,36,37,47,48-hexamethyl-70, 71-dioxa-56-azatricyclohexatriaconta-21,23,25(47),26(48)-tetraene-49, 50,51,52,53-pentone]
- mTORC1 selective @ 24 hrs (mTORC1 over mTORC2): YES

SMILES: COCCOCCO[C@@H]1C[C@@H]2CC[C@@H](C)[C@@](O)(O2)C(=O)C(=O)N2CCCC[C@H]2C(=O)O[C@H]([C@H](C)C[C@@H]2CC[C@@H](OCCO)[C@H](OC)C2)CC(=O)[C@H](C)/C=C(\C)[C@@H](O)[C@@H](OC)C(=O)[C@H](C)C[C@H](C)/C=C/C=C/C=C/1C [I-104, (22E,24E,26E,27E,35R,36S,37R,38R,40S,42S,44R,45S,46R,47R,56R)-46, 56-dihydroxy-45-[(1R)-2-[(1S,3R, 4R)-4-(2-hydroxyethoxy)-3-methoxy-cyclohexyl]-1-methyl-ethyl]-47-methoxy-44-[2-(2-methoxyethoxy)ethoxy]-35,36,37,38,48,49-hexamethyl-66, 67-dioxa-57-azatricyclohexatriaconta-22,24,26(48),27(49)-tetraene-50,51,52,53,54-pentone]
- IC50 [1]: 0.1 to 1 nM
- mTORC1 selective @ 24 hrs (mTORC1 over mTORC2): YES
